Patent US12110295B2, “WD40 repeat domain protein 5 (WDR5) degradation/disruption compounds and methods of use” (Icahn School of Medicine at Mount Sinai, priority 2018, dated 2024)
Entries after “also recorded” stand apart in the source; their conditions may differ.

What was measured:
MV4;11 cells = assay: Cell viability assay (trypan blue, live cell count) in MV4;11 cells; assay type: cell-based; conditions: 0.1, 0.5, 1, 5 and 10 μM, 72 h, FIG. 4
Procedure: MV4;11 cells were treated with DMSO or the indicated compounds at indicated concentration of 0.1 μM, 0.5 μM, 1 μM, 5 μM, and 10 μM for 72 hours.
MV4;11 cells were purchased from ATCC and cultured in RPMI 1640 supplemented with 10% FBS and 1% Penicillin/Streptomycin.
0.5×10^6 MV4;11 cells were seeded in 2 mL medium for each well in 12-well plates. WDR5 degraders in DMSO were added to the medium at indicated concentrations. DMSO was used as the control. Each treatment was done in duplicate wells. After 72 h treatment, 1 part cell suspension from each treatment was mixed with 1 part 0.4% trypan blue respectively. The mixture was allowed to incubate for ˜3 min at room temperature and live cells were counted by automated cell counter.

WDR5 [1] = target: T1, WDR5 (Homo sapiens, UniProt P61964); assay: Western blot of WDR5 protein levels in MIAPACA2 cells; assay type: cell-based; set-up: After WDR5 degrader treatment, cells were collected and lysed; endogenous in cells; host or cells: MV4;11 and/or MIAPACA2; conditions: MIAPACA2 cells, 0.1, 0.5, 1, 5 and 10 μM, 18 h, FIG. 5
Procedure: MIAPACA2 cells were treated with DMSO or indicated compounds at 0.1 μM, 0.5 μM, 1 μM, 5 μM, and 10 μM for 18 hours.
MIAPACA2 cells were treated with DMSO or indicated compounds at 0.5 μM and 1.0 μM for 18 hours.
MIAPACA2 cells were treated with DMSO or indicated compounds at 0.1 μM and 0.5 μM for 18 hours.
MIAPACA2 cells were treated with DMSO or indicated compounds at 0.5 μM and 1.0 μM or at 1.0 μM and 10 μM for 18 hours.
MIAPACA2 and Hela cells were cultured in DMEM supplemented with 10% FBS and 1% Penicillin/Streptomycin.
WDR5 degraders were dissolved in DMSO and DMSO with no degraders was used as the control. 1×10^6 MV4;11 cells or 1×10^5 MIAPACA2 or 2×10^5 Hela cells were seeded in 2 mL medium for each well in […].
For prescreening of all the compounds, each test compound was added to the medium at indicated concentrations. After 18 h treatment, cells were collected.
After WDR5 degrader treatment, cells were collected and lysed. Total cell lysates were used for western blot. The following primary antibodies were used: WDR5 (Santa Cruz), vinculin (Cell Signaling Technology), tubulin (Cell Signaling Technology), GAPDH (Santa Cruz). Blots were imaged using fluorescence-labeled secondary antibodies on ChemiDoc™ Imaging Systems.

WDR5 [2] = target: T1, WDR5; assay: Screening of putative WDR5 degraders by Western blot in MV4;11 and/or MIAPACA2 cells; assay type: cell-based; set-up: After WDR5 degrader treatment, cells were collected and lysed; endogenous in cells; host or cells: MV4;11 and/or MIAPACA2; conditions: summary of screening, FIGS. 6-10
How it was run: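 MV4;11 (1×10^6/well) or MIAPACA2 (1×10^5/well) cells treated 18 h with compound at paired doses between 0.1 and 10 μM, DMSO as control. Total lysates immunoblotted for WDR5 with vinculin, tubulin or GAPDH loading controls; fluorescent secondary detection.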

WDR5 [3] = target: T1, WDR5; conditions: MV4;11 cells, summary of FIGS. 1-3
Procedure: MV4;11 cells were treated with DMSO or indicated compounds at 1 μM and 10 μM for 18 hours.
MV4;11 cells were treated with DMSO or indicated compounds at 0.1 μM, 0.5 μM, 1 μM, 5 μM, and 10 μM for 18 hours.
MV4;11 cells were treated with DMSO or indicated compounds at a fixed concentration of 0.5 μM for 1, 2, 4, 8, 16, or 24 hours.
MV4;11 cells were treated with DMSO or indicated compounds at 0.1 μM and 0.5 μM for 18 hours. […] MV4;11 cells were treated with DMSO or indicated compounds at 0.1 μM and 1.0 μM for 18 hours.
WDR5 degraders were dissolved in DMSO and DMSO with no degraders was used as the control. 1×10^6 MV4;11 cells or 1×10^5 MIAPACA2 or 2×10^5 Hela cells were seeded in 2 mL medium for each well in 24-well plates.
And cells were collected at indicated timepoints: 1 h, 2 h, 4 h, 8 h, 16 h, and 24 h.

reduction of WDR5 protein levels, concentration-dependent (WDR5 [1]): reduced WDR5 protein levels
effective degradation of WDR5 in MV4;11 and/or MIAPACA2 cells (WDR5 [2]): able to effectively degrade WDR5
Structure (SMILES): Cc1ncsc1-c1ccc(CNC(=O)[C@@H]2C[C@@H](O)CN2C(=O)[C@@H](NC(=O)CCCCCCCCCC(=O)NCCN2CCN(Cc3cccc(-c4ccc(N5CCN(C)CC5)c(NC(=O)c5c[nH]c(=O)cc5C(F)(F)F)c4)c3)CC2)C(C)(C)C)cc1 [XF048-133, N^1-((S)-1-((2S,4R)-4-hydroxy-2-((4-(4-methylthiazol-5-yl)benzyl)carbamoyl)pyrrolidin-1-yl)-3,3-dimethyl-1-oxobutan-2-yl)-N^11-(2-(4-((4′-(4-methylpiperazin-1-yl)-3′-(6-oxo-4-(trifluoromethyl)-1,6-dihydropyridine-3-carboxamido)-[1,1′-biphenyl]-3-yl)methyl)piperazin-1-yl)ethyl)undecanediamide]
viability of MV4;11 cells (MV4;11 cells): reduced the viability of MV4;11 cells much more significantly than the WDR5 inhibitor OICR-9429; also recorded: reduced the viability of MV4;11 cells much more significantly than the WDR5 inhibitor OICR-9419
reduction of WDR5 protein levels in a concentration- and time-dependent manner (WDR5 [3]): effective in reducing WDR5 protein levels
